From ChEMBL document CHEMBL3526118, “Combination of GSH trapping and time-dependent inhibition assays as a predictive method of drugs generating highly reactive metabolites” (Drug Metab Dispos, 2011) come the findings set out here.

The target of data set [1] is CYP3A4 (Homo sapiens, UniProt P08684). As to the kind of experiment: in vitro.
Data set [2] deals with CYP2C9 (Homo sapiens, UniProt P11712). In words: in vitro.
Data set [3] addresses T1, CYP2C8 (Homo sapiens, UniProt P10632).
T1 sequence (P10632 whole entry): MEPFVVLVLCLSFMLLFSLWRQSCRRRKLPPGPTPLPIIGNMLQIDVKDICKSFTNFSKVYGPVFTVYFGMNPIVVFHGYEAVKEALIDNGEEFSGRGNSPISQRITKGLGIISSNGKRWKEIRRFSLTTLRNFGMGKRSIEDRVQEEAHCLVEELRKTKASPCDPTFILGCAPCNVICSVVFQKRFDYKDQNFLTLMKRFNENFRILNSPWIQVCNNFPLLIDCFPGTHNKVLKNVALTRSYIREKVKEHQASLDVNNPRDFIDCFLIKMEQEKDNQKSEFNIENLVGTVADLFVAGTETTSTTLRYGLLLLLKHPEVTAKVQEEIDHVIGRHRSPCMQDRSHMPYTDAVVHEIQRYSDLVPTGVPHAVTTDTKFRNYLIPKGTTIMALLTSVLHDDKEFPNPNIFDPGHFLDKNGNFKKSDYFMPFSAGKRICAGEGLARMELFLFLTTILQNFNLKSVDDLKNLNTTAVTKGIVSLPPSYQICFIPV
In words: in vitro.

Data set [4] has as its system Liver microsome. As to the kind of experiment: Covalent binding in human liver microsomes measured per mg of protein using radiolabelled compound at 10 uM after 1 hr incubation by liquid scintillation counting.
Data set [5] deals with CYP2D6 (Homo sapiens, UniProt P10635). In words: in vitro.
CYP2D6, sequence (P10635 whole entry): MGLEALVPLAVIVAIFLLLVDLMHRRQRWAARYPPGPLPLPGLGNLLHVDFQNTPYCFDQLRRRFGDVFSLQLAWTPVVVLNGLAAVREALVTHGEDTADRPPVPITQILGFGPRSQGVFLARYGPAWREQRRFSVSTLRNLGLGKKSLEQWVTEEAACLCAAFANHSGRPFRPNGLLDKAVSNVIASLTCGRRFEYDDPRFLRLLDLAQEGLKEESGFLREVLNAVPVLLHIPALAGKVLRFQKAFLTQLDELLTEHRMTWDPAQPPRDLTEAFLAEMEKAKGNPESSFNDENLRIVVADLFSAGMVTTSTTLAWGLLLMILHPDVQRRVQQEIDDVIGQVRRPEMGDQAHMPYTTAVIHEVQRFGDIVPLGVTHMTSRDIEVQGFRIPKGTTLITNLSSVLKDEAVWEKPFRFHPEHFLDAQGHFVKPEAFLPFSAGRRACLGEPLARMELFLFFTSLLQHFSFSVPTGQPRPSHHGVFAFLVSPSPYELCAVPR
Data set [6] deals with T2, CYP2B6 (Homo sapiens, UniProt P20813).
T2 sequence (P20813 whole entry): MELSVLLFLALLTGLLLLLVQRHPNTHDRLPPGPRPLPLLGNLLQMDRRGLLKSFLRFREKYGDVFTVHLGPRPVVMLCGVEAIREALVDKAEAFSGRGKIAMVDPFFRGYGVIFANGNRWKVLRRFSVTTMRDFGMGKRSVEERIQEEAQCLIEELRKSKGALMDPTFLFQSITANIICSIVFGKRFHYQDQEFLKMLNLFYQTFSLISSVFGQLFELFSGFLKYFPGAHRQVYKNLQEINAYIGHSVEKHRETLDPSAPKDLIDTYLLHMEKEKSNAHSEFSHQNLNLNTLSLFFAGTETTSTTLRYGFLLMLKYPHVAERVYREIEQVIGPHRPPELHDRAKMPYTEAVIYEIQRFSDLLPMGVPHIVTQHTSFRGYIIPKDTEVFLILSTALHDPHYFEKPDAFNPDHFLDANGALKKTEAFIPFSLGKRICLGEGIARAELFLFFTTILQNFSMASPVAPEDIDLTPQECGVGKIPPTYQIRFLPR
In words: in vitro.

Data set [7] has as its system Liver microsome. As to the kind of experiment: Metabolic activation in human liver microsomes assessed as [3H]GSH adduct formation rate measured per mg of protein at 100 uM by [3H]GSH trapping assay.
Data set [8] addresses T3, CYP1A2 (Homo sapiens, UniProt P05177).
T3 sequence (P05177 whole entry): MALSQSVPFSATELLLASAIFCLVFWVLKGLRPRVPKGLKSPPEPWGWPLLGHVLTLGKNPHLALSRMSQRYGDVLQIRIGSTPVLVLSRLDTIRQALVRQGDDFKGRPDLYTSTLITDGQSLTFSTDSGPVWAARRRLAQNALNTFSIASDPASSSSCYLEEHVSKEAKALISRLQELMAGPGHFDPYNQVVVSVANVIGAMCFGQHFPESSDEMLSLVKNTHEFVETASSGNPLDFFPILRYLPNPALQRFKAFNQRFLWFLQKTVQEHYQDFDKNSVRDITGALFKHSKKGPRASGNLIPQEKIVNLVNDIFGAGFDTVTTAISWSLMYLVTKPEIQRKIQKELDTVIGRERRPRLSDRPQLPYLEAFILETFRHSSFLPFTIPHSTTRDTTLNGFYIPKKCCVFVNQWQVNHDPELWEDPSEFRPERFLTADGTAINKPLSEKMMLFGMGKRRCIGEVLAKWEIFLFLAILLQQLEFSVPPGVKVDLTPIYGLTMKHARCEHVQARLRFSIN
As to the kind of experiment: in vitro.

Data set [9] has as its target CYP2C19 (Homo sapiens, UniProt P33261). As to the kind of experiment: in vitro.
Data set [10] can be described thus: Intrinsic clearance for reactive metabolites formation assessed as summation of [3H]GSH adduct formation rate-based reactive metabolites formation and cytochrome P450 (unknown origin) inactivation rate-based reactive metabolites formation. To be noted: human.
Data set [11] in a line: Intrinsic clearance for reactive metabolites formation per mg of protein based on cytochrome P450 (unknown origin) inactivation rate by TDI assay. To be noted: human.

CYP3A4, sequence (P08684 whole entry): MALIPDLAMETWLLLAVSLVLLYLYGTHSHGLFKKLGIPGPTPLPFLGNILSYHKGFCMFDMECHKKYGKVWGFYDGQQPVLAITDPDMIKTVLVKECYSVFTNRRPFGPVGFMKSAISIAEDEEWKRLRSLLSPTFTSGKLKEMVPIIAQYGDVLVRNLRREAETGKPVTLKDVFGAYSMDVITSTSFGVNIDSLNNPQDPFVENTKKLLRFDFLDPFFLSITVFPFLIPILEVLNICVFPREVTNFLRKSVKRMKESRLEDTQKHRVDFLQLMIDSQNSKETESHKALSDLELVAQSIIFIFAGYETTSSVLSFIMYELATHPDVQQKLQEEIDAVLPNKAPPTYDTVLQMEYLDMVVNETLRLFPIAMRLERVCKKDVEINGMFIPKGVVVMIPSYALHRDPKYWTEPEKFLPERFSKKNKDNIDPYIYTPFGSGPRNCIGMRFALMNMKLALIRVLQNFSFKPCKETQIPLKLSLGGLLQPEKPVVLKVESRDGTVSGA
CYP2C9, sequence (P11712 whole entry): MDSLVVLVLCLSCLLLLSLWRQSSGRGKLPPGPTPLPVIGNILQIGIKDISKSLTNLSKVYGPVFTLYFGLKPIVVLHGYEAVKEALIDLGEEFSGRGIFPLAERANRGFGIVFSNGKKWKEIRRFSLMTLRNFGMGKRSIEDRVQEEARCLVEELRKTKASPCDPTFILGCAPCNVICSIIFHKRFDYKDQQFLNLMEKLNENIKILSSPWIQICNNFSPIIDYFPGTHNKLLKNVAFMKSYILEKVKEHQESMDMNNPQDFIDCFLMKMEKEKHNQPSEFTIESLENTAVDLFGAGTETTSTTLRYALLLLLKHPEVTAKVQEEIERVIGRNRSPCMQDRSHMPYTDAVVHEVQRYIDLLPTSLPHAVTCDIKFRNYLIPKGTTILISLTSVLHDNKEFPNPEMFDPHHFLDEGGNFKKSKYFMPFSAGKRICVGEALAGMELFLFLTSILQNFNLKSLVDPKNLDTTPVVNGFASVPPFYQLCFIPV
CYP2C19, sequence (P33261 whole entry): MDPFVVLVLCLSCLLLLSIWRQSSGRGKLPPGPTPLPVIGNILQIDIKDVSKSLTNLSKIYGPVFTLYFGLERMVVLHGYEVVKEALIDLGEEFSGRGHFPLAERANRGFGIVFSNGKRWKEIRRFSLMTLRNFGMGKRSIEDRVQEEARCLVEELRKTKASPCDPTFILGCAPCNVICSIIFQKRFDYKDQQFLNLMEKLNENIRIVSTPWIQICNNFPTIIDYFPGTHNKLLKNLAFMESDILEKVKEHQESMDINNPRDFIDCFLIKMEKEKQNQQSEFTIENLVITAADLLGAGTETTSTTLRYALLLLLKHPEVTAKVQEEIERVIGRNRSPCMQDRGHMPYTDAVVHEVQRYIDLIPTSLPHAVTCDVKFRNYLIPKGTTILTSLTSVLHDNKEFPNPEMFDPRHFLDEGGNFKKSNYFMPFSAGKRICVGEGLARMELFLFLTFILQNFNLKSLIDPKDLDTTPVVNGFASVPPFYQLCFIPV

As to `CCCCC(=O)N(Cc1ccc(-c2ccccc2-c2nnn[nH]2)cc1)[C@H](C(=O)O)C(C)C`, the inhibition at 100 µM in data set [1], in data set [2], in [3], in data set [5], in [6] and in data set [8] was < 10% each time. For the same compound, in data set [9] (human liver microsomes), the inhibition at 100 µM is < 10%. The compound also returned a PB in [4] of 1.4 pmol. Also, the Drug metabolism entry in data set [7] is reported as “metabolite_not_detected”.

Consider `COc1ccc(CCN(C)CCCC(C#N)(c2ccc(OC)c(OC)c2)C(C)C)cc1OC` (stereo unspecified), for which the inhibition at 100 µM in data set [1] is 51%; in data set [2], < 10%; in data set [3] it was < 10%; in data set [5], < 10%; in data set [6], 10%; in [8], < 10%. Further, in data set [9] (microsomes), the inhibition at 100 µM was < 10%.

Turning to `Cc1c(N(C)C)c(=O)n(-c2ccccc2)n1C` [AMINOPYRINE], the inhibition at 100 µM in data set [1], in data set [2], in data set [3], in [5], in data set [6] and in data set [8] was < 10% throughout. The inhibition at 100 µM in data set [9] (microsomes) was < 10%. The PB in data set [4] is 30.9 pmol. Also, the Drug metabolism result in [7] is recorded as “metabolite_not_detected”.

`CC(C)c1c(C(=O)Nc2ccccc2)c(-c2ccccc2)c(-c2ccc(F)cc2)n1CC[C@@H](O)C[C@@H](O)CC(=O)O` [ATORVASTATIN]: the inhibition at 100 µM in data set [3] and in data set [6] was < 10% each time. For the same compound, the PB in data set [4] is 352.3 pmol. Also, the Drug metabolism in data set [7] was 12.7 pmol/min.

On to `Cn1c(=O)c2c(ncn2C)n(C)c1=O` [CAFFEINE], for which the inhibition at 100 µM in data set [1], in [2], in data set [3], in [5], in data set [6] and in data set [8] was < 10% in each case. Besides, the inhibition at 100 µM in data set [9] (human liver microsomes) was < 10%. The same compound gave a PB in [4] of 9.9 pmol. The Drug metabolism result in data set [7] is “metabolite_not_detected”.

Take `CN1CCN(C2=Nc3cc(Cl)ccc3Nc3ccccc32)CC1` [CLOZAPINE]: the inhibition at 100 µM in data set [2] was < 10%; in data set [3] it was < 10%; in data set [5] it was < 10%; in data set [6], < 10%; in data set [8], 12%.

On to `COc1cc2c(cc1OC)C(=O)C(CC1CCN(Cc3ccccc3)CC1)C2` (stereo unspecified) [DONEPEZIL], for which the PB in [4] was 29.7 pmol. Moreover, the Drug metabolism result in data set [7] was “metabolite_not_detected”.

Take `NS(=O)(=O)c1cc(C(=O)O)c(NCc2ccco2)cc1Cl` [FUROSEMIDE]: the inhibition at 100 µM in data set [3] and in [6] was < 10% throughout.

For the compound `CN(C)CCCN1c2ccccc2CCc2ccccc21` [IMIPRAMINE], the inhibition at 100 µM in data set [1], in data set [2], in data set [3], in [5], in [6] and in data set [8] was < 10% in each case.

With `C[C@H]1COc2c(N3CCN(C)CC3)c(F)cc3c(=O)c(C(=O)O)cn1c23.C[C@H]1COc2c(N3CCN(C)CC3)c(F)cc3c(=O)c(C(=O)O)cn1c23.O` [LEVOFLOXACIN], the inhibition at 100 µM in [2], in data set [3], in data set [5], in [6], in data set [8] and in data set [9] (human liver microsomes) was < 10% in each case. Further, the Drug metabolism entry in data set [7] was “metabolite_not_detected”.

As for `CCCc1nc(C(C)(C)O)c(C(=O)O)n1Cc1ccc(-c2ccccc2-c2nnn[nH]2)cc1` [OLMESARTAN], the inhibition at 100 µM in [1], in [2], in data set [3], in [5], in data set [6] and in data set [8] was < 10% in each case. Also, the inhibition at 100 µM in data set [9] (human liver microsomes) was < 10%. In data set [4], this compound gave a PB of 3.4 pmol. The Drug metabolism result in data set [7] is reported as “metabolite_not_detected”.

As to `CC[C@H](C)C(=O)O[C@H]1C[C@H](O)C=C2C=C[C@H](C)[C@H](CC[C@@H](O)C[C@@H](O)CC(=O)O)[C@H]21` [PRAVASTATIN], the inhibition at 100 µM in data set [1], in data set [2], in data set [3], in data set [5], in [6] and in data set [8] was < 10% in each case. Besides, the inhibition at 100 µM in data set [9] (microsomes) is < 10%. The same compound came in with a PB in [4] of 3.7 pmol. For the same compound, in data set [7], the Drug metabolism result is on record as “metabolite_not_detected”.

For `CCN(CC)CCNC(=O)c1ccc(N)cc1` [PROCAINAMIDE], the inhibition at 100 µM in [1], in [2], in data set [3], in data set [5], in data set [6] and in [8] was < 10% each time. Also, in [4], the PB is 5.1 pmol. The Drug metabolism in data set [7] came out at 41.3 pmol/min.

Turning to `CC(C)NCC(O)COc1cccc2ccccc12` (stereo unspecified) [PROPRANOLOL], the inhibition at 100 µM in [1] is < 10%; in [2] it was < 10%; in [3], < 10%; in [5], < 10%; in data set [6], < 10%; in data set [8] it was 25%. Also, in data set [9] (microsomes), the inhibition at 100 µM is < 10%. Besides, the results for the clearance in data set [10] and in [11] were 0.031 µL/min/mg and 0.004 µL/min/mg, respectively.

In [4], `CC(C)c1nc(CN(C)C(=O)N[C@H](C(=O)N[C@@H](Cc2ccccc2)C[C@H](O)[C@H](Cc2ccccc2)NC(=O)OCc2cncs2)C(C)C)cs1` [RITONAVIR] showed a PB of 253.3 pmol. In [7], the Drug metabolism entry was “metabolite_not_detected”. In addition, the clearance in [10] and in [11] was 3.55 µL/min/mg in each case.

`Cc1cc(NS(=O)(=O)c2ccc(N)cc2)no1` [SULFAMETHOXAZOLE]: the inhibition at 100 µM in data set [3] and in data set [6] was < 10% in each case.

Consider `CCCC(CCC)C(=O)O` [VALPROIC ACID], for which the inhibition at 100 µM in [1], in data set [2], in data set [3], in data set [5], in [6] and in [8] was < 10% throughout.

Consider `Cc1cc(CC(=O)O)n(C)c1C(=O)c1ccc(Cl)cc1` [ZOMEPIRAC], for which the inhibition at 100 µM in data set [1], in data set [2], in data set [3], in data set [5], in [6] and in data set [8] was < 10% each time. For the same compound, the inhibition at 100 µM in [9] (microsomes) is < 10%. The compound further showed a PB in data set [4] of 6.4 pmol. Also, the Drug metabolism result in [7] is listed as “metabolite_not_detected”.
